Assay results: patent US11952611B2, “Methods and systems for detection of antibiotic resistance” (Laboratory Corporation of America Holdings, priority 2017, dated 2024)

Experiments:
BAA-1720 MRSA = assay: MRSA detection from Copan e-Swabs (Table 3); format: cell-based, Staphylococcus aureus
Description: Bacterial strains were serially diluted and Copan e-Swabs™ were inoculated with 100 μL of LB with approximately the target number of cells of 1000 CFU, 500 CFU, 250 CFU, 125 CFU, 63 CFU, 31 CFU, 16 CFU, or 8 CFU. Swabs were then eluted in 1 mL modified Amies solution (included with commercially available Copan e-Swabs™). 135 μL of this solution was added to each well of a 96-well plate. 15 μL of cefoxitin was added to the wells to reach a final concentration of 1.8 μg/mL, 3.6 μg/mL, or 5.4 μg/mL. The plate was then sealed and incubated at 37° C. for 2 hours. 10 μL of recombinant phage (1.6×10^8 pfu/mL) was added to each well. The plate was then re-sealed and incubated at 37° C. for an additional 2 hours. A master mix was made containing 15 μL 5× lysis buffer, 50 μL luciferase assay buffer, and 1 μL luciferase substrate per well. 65 μL of master mix was added to each well. Luminescence from the reactions was read on a GLOMAX® Navigator and relative luminal units (RLU) for each reaction were plotted and analyzed. RLU values three times greater than an established background RLU level for modified Amies solution (>1500 RLU) were considered positive. The results, shown in Table 3, indicate that a positive MRSA determination was made with 17 CFU in a well, originating from approximately 125 CFU on a swab when incubated with the previously established cut-off of 1.8 μg/mL. Positive results are in bold.

12600 MSSA = assay: Effect of duration of antibiotic and phage exposure on MSSA signal (Table 5); format: cell-based, Staphylococcus aureus
Description: Bacterial strains were serially diluted and transferred to a 96-well plate at 135 μL per well. 15 μL of cefoxitin was added to the wells to reach a final concentration of 1.8 μg/mL, 3.6 μg/mL, or 5.4 μg/mL. The plate was then sealed and incubated at 37° C. for 2 hours or 3 hours. 10 μL of recombinant phage (1.6×10^8 pfu/mL) was added to each well. The plate was then re-sealed and incubated at 37° C. for an additional 1 or 2 hours. A master mix was made containing 15 μL 5× lysis buffer, 50 μL luciferase assay buffer, and 1 μL luciferase substrate per well. 65 μL of master mix was added to each well. Luminescence from the reactions was read on a GLOMAX® Navigator and relative luminal units (RLU) for each reaction were plotted and analyzed. RLU values three times greater than an established background RLU level for LB (>750 RLU) were considered positive. The results, shown in Table 5, indicate that the number of MSSA strains producing false-positives at the previously established cut-off of 1.8 μg/mL cefoxitin were reduced with a 3-hour antibiotic/1-hour phage protocol when compared to a 2-hour antibiotic/2-hour phage protocol. A false positive occurred at 541 CFU with the 2-hour antibiotic/2-hour phage protocol. Whereas, the 3-hour antibiotic/1-hour phage protocol produced false positives at 4331 CFU. Positive results are in bold. In Table 5, CFU values (541 CFU and 305 CFU) were experimentally validated by direct plating.

[1] = target swab CFU 8, detected CFU 1
[2] = target swab CFU 16, detected CFU 1
[3] = target swab CFU 31, detected CFU 1
[4] = target swab CFU 63, detected CFU 9
[5] = target swab CFU 125, detected CFU 17
[6] = target swab CFU 250, detected CFU 41
[7] = target swab CFU 500, detected CFU 72
[8] = target swab CFU 1000, detected CFU 136

## CO[C@@]1(NC(=O)Cc2cccs2)C(=O)N2C(C(=O)O)=C(COC(N)=O)CS[C@@H]21 [Cefoxitin, cefoxitin]
BAA-1720 MRSA; [1]
  Cefoxitin (RLU) 1.8 ug/mL: 559 RLU
  Cefoxitin (RLU) 3.6 ug/mL: 429 RLU
  Cefoxitin (RLU) 5.4 ug/mL: 336 RLU
BAA-1720 MRSA; [2]
  Cefoxitin (RLU) 1.8 ug/mL: 1179 RLU
  Cefoxitin (RLU) 3.6 ug/mL: 470 RLU
  Cefoxitin (RLU) 5.4 ug/mL: 551 RLU
BAA-1720 MRSA; [3]
  Cefoxitin (RLU) 1.8 ug/mL: 880 RLU
  Cefoxitin (RLU) 3.6 ug/mL: 558 RLU
  Cefoxitin (RLU) 5.4 ug/mL: 1405 RLU
BAA-1720 MRSA; [4]
  Cefoxitin (RLU) 1.8 ug/mL: 1280 RLU
  Cefoxitin (RLU) 3.6 ug/mL: 1568 RLU
  Cefoxitin (RLU) 5.4 ug/mL: 1286 RLU
BAA-1720 MRSA; [5]
  Cefoxitin (RLU) 1.8 ug/mL: 2512 RLU
  Cefoxitin (RLU) 3.6 ug/mL: 1337 RLU
  Cefoxitin (RLU) 5.4 ug/mL: 2501 RLU
BAA-1720 MRSA; [6]
  Cefoxitin (RLU) 1.8 ug/mL: 3766 RLU
  Cefoxitin (RLU) 3.6 ug/mL: 4022 RLU
  Cefoxitin (RLU) 5.4 ug/mL: 3374 RLU
BAA-1720 MRSA; [7]
  Cefoxitin (RLU) 1.8 ug/mL: 11590 RLU
  Cefoxitin (RLU) 3.6 ug/mL: 7112 RLU
  Cefoxitin (RLU) 5.4 ug/mL: 7648 RLU
BAA-1720 MRSA; [8]
  Cefoxitin (RLU) 1.8 ug/mL: 23820 RLU
  Cefoxitin (RLU) 3.6 ug/mL: 17540 RLU
  Cefoxitin (RLU) 5.4 ug/mL: 18400 RLU
12600 MSSA; detected CFU 305
  Cefoxitin (RLU) - 2 Hour Antibiotic + 2 Hour Phage 1.8 ug/mL: 600 RLU
  Cefoxitin (RLU) - 2 Hour Antibiotic + 2 Hour Phage 3.6 ug/mL: 225 RLU
  Cefoxitin (RLU) - 2 Hour Antibiotic + 2 Hour Phage 5.4 ug/mL: 244 RLU
  Cefoxitin (RLU) - 3 Hour Antibiotic + 1 Hour Phage 1.8 ug/mL: 267 RLU
  Cefoxitin (RLU) - 3 Hour Antibiotic + 1 Hour Phage 3.6 ug/mL: 198 RLU
  Cefoxitin (RLU) - 3 Hour Antibiotic + 1 Hour Phage 5.4 ug/mL: 184 RLU
12600 MSSA; detected CFU 541
  Cefoxitin (RLU) - 2 Hour Antibiotic + 2 Hour Phage 1.8 ug/mL: 1065 RLU
  Cefoxitin (RLU) - 2 Hour Antibiotic + 2 Hour Phage 3.6 ug/mL: 224 RLU
  Cefoxitin (RLU) - 2 Hour Antibiotic + 2 Hour Phage 5.4 ug/mL: 217 RLU
  Cefoxitin (RLU) - 3 Hour Antibiotic + 1 Hour Phage 1.8 ug/mL: 258 RLU
  Cefoxitin (RLU) - 3 Hour Antibiotic + 1 Hour Phage 3.6 ug/mL: 215 RLU
  Cefoxitin (RLU) - 3 Hour Antibiotic + 1 Hour Phage 5.4 ug/mL: 171 RLU
12600 MSSA; detected CFU 1083
  Cefoxitin (RLU) - 2 Hour Antibiotic + 2 Hour Phage 1.8 ug/mL: 1718 RLU
  Cefoxitin (RLU) - 2 Hour Antibiotic + 2 Hour Phage 3.6 ug/mL: 395 RLU
  Cefoxitin (RLU) - 2 Hour Antibiotic + 2 Hour Phage 5.4 ug/mL: 277 RLU
  Cefoxitin (RLU) - 3 Hour Antibiotic + 1 Hour Phage 1.8 ug/mL: 415 RLU
  Cefoxitin (RLU) - 3 Hour Antibiotic + 1 Hour Phage 3.6 ug/mL: 201 RLU
  Cefoxitin (RLU) - 3 Hour Antibiotic + 1 Hour Phage 5.4 ug/mL: 208 RLU
12600 MSSA; detected CFU 2165
  Cefoxitin (RLU) - 2 Hour Antibiotic + 2 Hour Phage 1.8 ug/mL: 3046 RLU
  Cefoxitin (RLU) - 2 Hour Antibiotic + 2 Hour Phage 3.6 ug/mL: 424 RLU
  Cefoxitin (RLU) - 2 Hour Antibiotic + 2 Hour Phage 5.4 ug/mL: 331 RLU
  Cefoxitin (RLU) - 3 Hour Antibiotic + 1 Hour Phage 1.8 ug/mL: 604 RLU
  Cefoxitin (RLU) - 3 Hour Antibiotic + 1 Hour Phage 3.6 ug/mL: 218 RLU
  Cefoxitin (RLU) - 3 Hour Antibiotic + 1 Hour Phage 5.4 ug/mL: 202 RLU
12600 MSSA; detected CFU 4331
  Cefoxitin (RLU) - 2 Hour Antibiotic + 2 Hour Phage 1.8 ug/mL: 5703 RLU
  Cefoxitin (RLU) - 2 Hour Antibiotic + 2 Hour Phage 3.6 ug/mL: 563 RLU
  Cefoxitin (RLU) - 2 Hour Antibiotic + 2 Hour Phage 5.4 ug/mL: 487 RLU
  Cefoxitin (RLU) - 3 Hour Antibiotic + 1 Hour Phage 1.8 ug/mL: 933 RLU
  Cefoxitin (RLU) - 3 Hour Antibiotic + 1 Hour Phage 3.6 ug/mL: 196 RLU
  Cefoxitin (RLU) - 3 Hour Antibiotic + 1 Hour Phage 5.4 ug/mL: 194 RLU
12600 MSSA; detected CFU 8662
  Cefoxitin (RLU) - 2 Hour Antibiotic + 2 Hour Phage 1.8 ug/mL: 11570 RLU
  Cefoxitin (RLU) - 2 Hour Antibiotic + 2 Hour Phage 3.6 ug/mL: 1224 RLU
  Cefoxitin (RLU) - 2 Hour Antibiotic + 2 Hour Phage 5.4 ug/mL: 979 RLU
  Cefoxitin (RLU) - 3 Hour Antibiotic + 1 Hour Phage 1.8 ug/mL: 1563 RLU
  Cefoxitin (RLU) - 3 Hour Antibiotic + 1 Hour Phage 3.6 ug/mL: 247 RLU
  Cefoxitin (RLU) - 3 Hour Antibiotic + 1 Hour Phage 5.4 ug/mL: 224 RLU
12600 MSSA; detected CFU 17323
  Cefoxitin (RLU) - 2 Hour Antibiotic + 2 Hour Phage 1.8 ug/mL: 22890 RLU
  Cefoxitin (RLU) - 2 Hour Antibiotic + 2 Hour Phage 3.6 ug/mL: 2071 RLU
  Cefoxitin (RLU) - 2 Hour Antibiotic + 2 Hour Phage 5.4 ug/mL: 1493 RLU
  Cefoxitin (RLU) - 3 Hour Antibiotic + 1 Hour Phage 1.8 ug/mL: 2695 RLU
  Cefoxitin (RLU) - 3 Hour Antibiotic + 1 Hour Phage 3.6 ug/mL: 255 RLU
  Cefoxitin (RLU) - 3 Hour Antibiotic + 1 Hour Phage 5.4 ug/mL: 246 RLU
